Consider two compounds from article PMC7871333 (Science translational medicine, 2020).

For data set [1] the following is noted: in vivo.
The conditions of data set [2]: rats; cited from earlier work.

For the compound `Cn1c(=O)c2c(ncn2C)n(C)c1=O` [caffeine], in data set [1], the “Caffeine pharmacokinetic parameters sampled in plasma or ISF” value was “not significantly different”. For `CC/N=c1\cc2oc3cc(NCC)c(C)cc3c(-c3ccccc3C(=O)OCC)c-2cc1C` [rhodamine 6G], the “Concentration in ISF compared to serum” value in data set [2] was “lower than in serum”.
